Assay results published in the NIST ThermoML archive (doi:10.1016/j.fluid.2013.07.054).
± gives the expanded uncertainty stated by the source.

Settings: 298.15 K; 101 kPa; Liquid; Vibrating tube method

SMILES	mass density [kg/m3]
CC(=O)C(C)C [3-methyl-2-butanone]	800.63 ± 0.11
CC(=O)CC(C)C [4-methylpentan-2-one]	796.23 ± 0.11
CCC(C)=O [butanone]	800.3 ± 0.11
